Test results as given in US5358712A, “Radiopharmaceutical agents for the detection of Alzheimer's disease” (Regents of the University of Minnesota, priority 1993, dated 1994).

Tests used:
vesamicol receptor [1] = target: T1, vesamicol receptor (Tetronarce californica, UniProt P81721); test: Binding affinities of aminoalcohols at the vesamicol receptor (purified cholinergic synaptic vesicles); parameters: species or system Torpedo californica
T1 construct: no ATP or acetylcholine
T1 sequence (P81721 1-515): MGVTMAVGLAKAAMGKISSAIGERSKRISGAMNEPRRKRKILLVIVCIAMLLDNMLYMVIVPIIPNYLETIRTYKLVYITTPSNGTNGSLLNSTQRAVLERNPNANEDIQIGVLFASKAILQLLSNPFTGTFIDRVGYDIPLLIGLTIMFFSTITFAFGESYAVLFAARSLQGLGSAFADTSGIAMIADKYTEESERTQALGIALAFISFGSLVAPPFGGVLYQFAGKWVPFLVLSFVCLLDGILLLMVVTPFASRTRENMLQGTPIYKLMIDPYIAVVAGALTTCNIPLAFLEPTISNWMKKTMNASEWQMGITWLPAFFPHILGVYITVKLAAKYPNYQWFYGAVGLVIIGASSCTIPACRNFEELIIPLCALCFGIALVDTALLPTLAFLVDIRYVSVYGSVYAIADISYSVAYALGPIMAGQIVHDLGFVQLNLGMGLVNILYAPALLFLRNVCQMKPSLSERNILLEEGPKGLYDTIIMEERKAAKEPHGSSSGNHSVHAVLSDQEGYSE
Protocol: The compounds were evaluated in a purified preparation of cholinergic synaptic vesicles isolated from the electric organ of Torpedo californica. A full description of this assay was described earlier. However, the present study was carried out in the absence of ATP and acetylcholine. […] Nonlinear regression analysis was carried out with MINSQ (MicroMath Scientific Software, Salt Lake City, Utah.). Protein content was determined by the method of Bradford, using a bovine serum albumin standard.
^a The compounds were tested as the corresponding hydrochlorides,
using highly purified synaptic vesicles obtained from the electric organ
of Torpedo Californica, following a procedure described earlier (8).

vesamicol receptor [2] = conditions: rodent brain; cited from earlier work
vesamicol receptor [3] = test: Ligand displacement studies in vivo; parameters: species or system rat (male Wistar); conditions: rat, vesamicol iv 30 minutes after radiotracer
Protocol: To determine if vesamicol could displace bound [^125 I]5 in vivo, a blocking dose of vesamicol was injected intravenously 30 minutes following the administration of (-)-[^125 I]5.
Two groups of male Wistar rats (n=3) were used in this study. Each animal initially received, while under anesthesia, an iv dose of (-)-5, (9.5 μCi) in 0.1 ml of 50% aqueous ethanol. After 30 min. the control group received an iv dose of 50% aqueous ethanol (0.1 ml) while the second group received an iv dose of (dl)-vesamicol hydrochloride (1.1 μmol/kg) in 0.1 ml of 50% aqueous ethanol. All animals were sacrificed, as described above, at one hour following radiotracer injection. Data was analyzed as described above.

vesamicol receptor [4] = conditions: cited from earlier work
[5] = test system: rodents and other laboratory animals; conditions: cited from earlier work
vesamicol receptor [6] = test: Blocking experiments: inhibition of radiotracer accumulation in the rat by coadministered compound; assay type: in vivo, rat (male Wistar); conditions: rat
In short: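 Male Wistar rats (n=3/group) got iv radiotracer, alone or coadministered with blocker (e.g. (+)/(−)-HBrPP·HCl 1.3 μmol/kg, vesamicol·HCl 1.1 μmol/kg, or 0.31–0.53 mg/kg in other series). Blood and tissues taken 60 min post-injection to assess radiotracer accumulation.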

[7] = test system: vesicular acetylcholine storage; conditions: cited from earlier work
[8] = rat
[9] = Tissue distribution (biodistribution) of radioiodinated compound in the rat; conditions: rat
monkey brain = test: Brain imaging study (SPECT); assay type: in vivo; conditions: cynomolgus monkey
Protocol: These studies were conducted with a Picker 3-head PRISM camera equipped with a high-resolution fan beam collimator. A 5-Kg male cynomolgus monkey, anesthetized with halothane, received an intravenous dose of 12 mCi of (-)-4-[^123 I]HIPP ((-)-[^123 I]5) in 1 ml of 50% ethanol-isotonicsaline. Data acquisition which commenced simultaneously, in the "step and shoot" mode, was divided into one 5minute segment, six 10-minute segments and a final 20-minute segment. At 18 hours post-injection, data was acquired under similar conditions for both the head and the heart, over a 20 minute period. For cardiac imaging, the camera was equipped with a medium-energy-parallel-hole collimator. The data was subsequently processed to obtain both a time-activity curve and images in the transaxial and sagittal planes. To obtain an estimate of the fractional accumulation of (-)-4-^123 I]HIPP in the monkey brain, a phantom filled consecutively with varying concentrations of aqueous Na^125 I was counted with the gamma camera to generate a standard curve.

[10] = iv, 60 min, + (dl)-vesamicol HCl 0.3 (Table 3) or 0.31 mg/kg, 60 min
[11] = iv, 60 min, radiotracer only (control)

## OC(CN1CCC(c2ccccc2)CC1)c1ccc(Br)cc1 (racemic) [Compound 15i, (dl)-1-(4-Bromophenyl)-2-(4-phenylpiperidinyl)ethanol]
Vesamicol receptor [1]
  binding to the vesamicol receptor (in words): equipotent with (dl)-vesamicol

## O[C@@H]1CCCC[C@H]1N1CCC(c2ccccc2)CC1 (relative stereo) [[^3 H]vesamicol]
Vesamicol receptor [2]
  cortical [^3 H]vesamicol binding after lesioning a known cholinergic pathway: significant decrease
  distribution relative to other markers of cholinergic innervation: correlate well

## O[C@@H]1CCCC[C@H]1N1CCC(c2ccccc2)CC1 (relative stereo) [vesamicol, trans-2-(4-phenylpiperidino)cyclohexanol]
Vesamicol receptor [3]
  displacement of bound (-)-[^125 I]5 radioactivity from brain or heart: fails to displace
Vesamicol receptor [3]; listed as (dl)-vesamicol
  displacement of bound (-)-[^125 I]5 radioactivity from brain or heart: can not readily displace
Vesamicol receptor [4]
  dissociation from the receptor: dissociate too quickly
  reversibility of binding to the vesamicol receptor: binds reversibly
[5]
  respiratory paralysis and death: induces respiratory paralysis and death
Vesamicol receptor [6]; vesamicol 1.1 μmol/kg, (+)-7 and (-)-7 1.3 μmol/kg, coadministered
  blocking of the accumulation of [^125 I]5 in vivo, relative potency: equipotent
[7]
  inhibition of ACh uptake into cholinergic synaptic vesicles and of quantal release: inhibit both the uptake of ACh into cholinergic synaptic vesicles and quantal release

## OC(CN1CCC(c2ccccc2)CC1)c1ccc([125I])cc1 (single isomer, unassigned; (+)) [(+)-[^125 l]13] [1-(4-Iodophenyl)-2-(4-phenylpiperidinyl)ethanol]
[8]
  efflux from the brain: much slower
Vesamicol receptor [6]; [10]
  Brain: Blood Ratio: 7.02
  Heart: Blood Ratio: 2.48
  radioactivity in blood: 0.03 % dose/g of tissue
Vesamicol receptor [6]; [11]
  Brain: Blood Ratio: 17.86
  Heart: Blood Ratio: 4.41
[9]; 3 hours post-injection vs initial, listed as (+)[^123 I]13
  decrease of concentration in the brain: 35%
[9]; initial, listed as (+)-[^125 I]13
  initial accumulation in the rat brain: 2.75 % of the injected dose
[9]; iv, 5 min
  Brain: Blood Ratio: 14.8
  Heart: Blood Ratio: 13.8
[9]; iv, 60 min
  Brain: Blood Ratio: 41.7
  Heart: Blood Ratio: 8.2
  radioactivity in lung: 1.77 % dose/g
[9]; iv, 180 min
  Brain: Blood Ratio: 37.4
  Heart: Blood Ratio: 5.7
  radioactivity in blood: 0.02 % dose/g
  radioactivity in brain: 0.93 % dose/g
  radioactivity in heart: 0.14 % dose/g
  radioactivity in kidney: 1.53 % dose/g
  radioactivity in liver: 1.97 % dose/g
  radioactivity in lung: 0.62 % dose/g
  radioactivity in muscle: 0.13 % dose/g
  radioactivity in spleen: 0.77 % dose/g

## OC(Cc1cccc(I)c1)CN1CCC(c2ccccc2)CC1 (single isomer, unassigned; (+)) [Compound 15j, (+)-2-Hydroxyl-3-(3-iodophenyl)-1-[1-(4-phenylpiperidinyl)]propane]
Vesamicol receptor [1]; synaptic vesicles from electric organ of Torpedo californica, tested as hydrochloride
  Kd: 0.073 ± 0.011 µM

## OC(Cc1ccc([123I])cc1)CN1CCC(c2ccccc2)CC1 (single isomer, unassigned; (-)) [(-)-4-[^123 I]HIPP, 2-Hydroxy-3-(4-iodophenyl)-1-(4-phenylpiperidyl)propane]
Monkey brain; 11/2 and 18 hours post-injection
  brain activity relative to surrounding tissues: high levels of activity
Monkey brain; iv
  t-1/2 in the monkey brain: 9 h
Monkey brain; iv, estimated
  accumulation within the brain: ~3 % of the injected dose

## OC(Cc1ccc(Br)cc1)CN1CCC(c2ccccc2)CC1 (single isomer, unassigned; (-)) [(-)-15a, 3-(4-Bromophenyl)-2-hydroxy-1-[1-(4-phenylpiperidinyl)]propane]
Vesamicol receptor [1]
  binding to the vesamicol receptor (in words): essentially equipotent with vesamicol
